The nature of series [1]: Example 3 plasma pharmacokinetics, normal hepatic function vs hepatic impairment.
Series [2] in a line: Example 2 plasma pharmacokinetics, normal renal function vs severe renal impairment. The settings on record: all samples in all individuals except four samples in one subject; Example 2.
The mark [3] stands for this setting: plasma, subjects with hepatic impairment, single intranasal dose.

These results are taken from patent publication US10413505B1, “Pharmaceutical compositions and methods of using the same” (priority 2017, dated 2019).

Turning to `COC(=O)[C@H]1[C@@H](OC(=O)c2ccccc2)C[C@@H]2CC[C@H]1N2` [norcocaine], the “plasma concentration (not measurable, below LLOQ)” value in series [1] (all subjects with normal hepatic function, all time points) is given as less than 0.1 ng/mL. Moreover, the “plasma concentration, low levels detected” value in series [1] (multiple time points in three Grade B impaired subjects) is not above 0.31 ng/mL. Besides, in series [1] (setting [3]), the “AUC0→t (Geometric mean)” value was determined as 0.753 ng·h/mL, the “AUC0→t (Mean)” value was found to be 0.950 ng·h/mL, the “AUC0→t (Median)” value is 0.788 ng·h/mL and the “Clast (Geometric mean)” value came out at 0.126 ng/mL. In addition, in series [1] (setting [3]), the “Clast (Mean)” value turned out to be 0.127 ng/mL, the “Clast (Median)” value was determined as 0.126 ng/mL, the “Cmax (Geometric mean)” value is on record as 0.219 ng/mL and the “Cmax (Mean)” value is 0.227 ng/mL. Besides, in series [1] (setting [3]), the “Cmax (Median)” value is reported as 0.212 ng/mL, the “Tlast (Geometric mean)” value worked out at 5.24 h, the “Tlast (Mean)” value was 6.33 h and the “Tlast (Median)” value worked out at 4.00 h. In series [1] (setting [3]), the “Tmax (Geometric mean)” value worked out at 1.50 h, the “Tmax (Mean)” value came to 1.50 h, the “Tmax (Median)” value was found to be 1.50 h and the “t1/2 (Geometric mean)” value was 5.07 h. In series [1] (setting [3]), the “t1/2 (Mean)” value is 6.23 h and the “t1/2 (Median)” value was 6.23 h. This compound gave a plasma concentration in series [1] (single time point (7 min) in one Grade B subject) of 0.354 ng/mL. Moreover, the “plasma concentration (below the LLOQ)” value in series [2] is listed as less than 0.1 ng/mL.
